Assay results published in US20080226596A1, “Therapeutic compositions and methods useful in treating hepatitis” (priority 2006, published 2008).
“Also recorded” adds a separate entry of the source.

Key:
SHP-1 = molecular target: T1, SHP-1 (Mus musculus, UniProt P29351); test: In vitro PTPase assay, recombinant GST/SHP-1; format: biochemical; conditions: for inhibitory activity against SHP-1: 3-4 μg/ml or 10-100 μg/ml
T1 construct: made in house
Experimental: In vitro PTPase activities were measured using the commercial protein tyrosine phosphatase assay kit (Upstate Biotechnology, Inc. (“UBI”)) following established procedure known to one of skill in the art. This assay measures the in vitro dephosphorylation of a synthetic phosphotyrosine peptide of the sequence Arg-Arg-Leu-Ile-Glu-Asp-Ala-Gle-Tyr-Ala-Ala-Arg-Gly, wherein the tyrosine is phosphorylated (SEQ ID NO: 3). Briefly, 0.01 µg of GST/PTPase fusion proteins was incubated in 50 μL of Tris buffer (10 mM Tris, pH 7.4) containing different concentrations of inhibitors or chemicals (0-1,000 μg/ml) at 22° C. for 10 minutes, followed by addition of 0.2 mM of the phosphotyrosine peptide and incubation at 22° C. for 18 hours. 100 μL of Malachite Green solution was added and incubated for 5 minutes, and the absorbance at 660 nm was measured after 5 minutes.
In vitro PTPase assays were used to determine the effects of compounds on recombinant PTPases, following established procedures using a synthetic phosphotyrosine peptide or DiFMUP as the substrate (Pathak et al., J. Imumol. 167, 3391 (2001)). Briefly, individual PTPases (0.1 µg/reaction) in 50 μL of PTPase buffer (50 mM Tris, pH 7.4) were incubated at 22° C. for 10 minutes or as indicated in the absence or presence of inhibitory compounds. Substrates (0.2 mM phosphotyrosine peptide) were then added and allowed to react at 22° C. for 18 hrs. PTPase activity of individual reactions was measured by adding 100 µL of malachite green solution (UBI) and then quantifying the amounts of free phosphate cleaved by the PTPase from the peptide substrate by spectrometry (OD660 nm). PTPase assays using DiFMUP as a substrate were conducted following a previously described procedure (Matter, et al., Biochem. Biophys. Res. Comm. 283, 1061 (2001)). Relative PTPase activities were calculated based on the formula: (PTPase activity in the presence of an inhibitory compound/PTPase activity in the absence of the compound)× 100%. To assess the reversibility of PTPase inhibition, GST fusion proteins of the PTPases bound on glutathione beads (Pharmacia) were pre-incubated with cold Tris buffer (50 mM Tris, pH 7.0) or Tris buffer containing the inhibitor at 4° C. for 30 minutes. The beads were then washed three times in cold Tris buffer or not washed prior to subjecting to in vitro PTPase assays.
(§1) In vitro PTPase assays were used to determine the effects of levamisole (Sigma), pentamidine (American Pharmaceutical Partners, Inc.), and ketoconazole (Sigma) on recombinant PTPases, following established procedures (Pathak et al., J. Imumol. 167, 3391 (2001); Pathak et al., Leukemia 16, 2285 (2002), Yi et al., J. Immunol. 169, 5978 (2002)) using a synthetic phosphotyrosine peptide or DiFMUP as the substrate as detailed above in section I.A.2.

PRL-1 = molecular target: T2, PRL-1 (Homo sapiens, UniProt Q93096); test: In vitro PTPase assay, recombinant PRL-1; format: biochemical; conditions: 0.1-100 μg/ml
T2 construct: GST (N); made in house; host or cells: DHSa (DH5a) bacteria
T2 sequence (Q93096 whole entry): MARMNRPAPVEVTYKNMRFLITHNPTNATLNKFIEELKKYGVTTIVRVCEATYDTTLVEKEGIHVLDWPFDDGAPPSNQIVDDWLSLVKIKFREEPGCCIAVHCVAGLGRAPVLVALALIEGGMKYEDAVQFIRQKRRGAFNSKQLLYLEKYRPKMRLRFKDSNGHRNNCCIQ
Source text: (§2) Sodium stibogluconate, suramin, sodium orthovanadate and GST fusion protein of SHP-1 have been described previously (Pathak et al., J. Imumol. 167, 3391 (2001)). Meglumine antimonate was obtained from Aventis. cDNAs of human PRL-1, PRL-2 and PRL-3 coding region were derived by RT-PCR from H9 cells (Safai, et al., Lancet 1, 1438 (1984)) and inserted in frame into the pGEX vector. cDNA of PRL-1R86 was generated by recombinant DNA technique using PRL-1 cDNA as template following established procedures (Jiao, et al., Mol. Cell. Biol. 16, 6985 (1996)). […]
(§3) In vitro PTPase assays were used to determine the effects of compounds on recombinant PTPases, following established procedures using a synthetic phosphotyrosine peptide or DiFMUP as the substrate (Pathak et al., J. Imumol. 167, 3391 (2001)). […] PTPase activity of individual reactions was measured by adding 100 µL of malachite green solution (UBI) and then quantifying the amounts of free phosphate cleaved by the PTPase from the peptide substrate by spectrometry (OD660 nm). […] Relative PTPase activities were calculated based on the formula: (PTPase activity in the presence of an inhibitory compound/PTPase activity in the absence of the compound)× 100%. […]

PRL-2 = molecular target: T3, PRL-2 (Homo sapiens, UniProt Q12974); test: In vitro PTPase assay, recombinant PRL-2; format: biochemical
T3 construct: GST (N); made in house; host or cells: DHSa (DH5a) bacteria
T3 sequence (Q12974 whole entry): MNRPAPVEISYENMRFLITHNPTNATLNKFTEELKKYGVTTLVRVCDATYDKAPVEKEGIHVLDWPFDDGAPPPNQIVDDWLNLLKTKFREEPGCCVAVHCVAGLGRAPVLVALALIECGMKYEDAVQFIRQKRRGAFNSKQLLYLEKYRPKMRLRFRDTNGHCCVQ
Source text: as §2, §3

GSTm8 = test: In vitro PTPase assay, GSTm8; format: biochemical; conditions: 3-4 μg/ml or 10-100 μg/ml
Source text: as §1

[1] = system: Stat1 tyrosine phosphorylation; test: IFN-alpha-induced Stat1 tyrosine phosphorylation in human cancer cell lines; format: cell-based
Experimental: Cell lysates were prepared by lysing cells in cold lysis buffer for 30 min and cleared by centrifuging at 14,000 rpm at 4° C. for 15 min. For SDS-PAGE, cell lysates were mixed with equal volume of 2×SDS-PAGE sample buffer, heated at 90° C. for 5 min and separated in 10% SDS-PAGE gels. Cellular proteins in SDS-PAGE gels were transferred to nitrocellulose membrane (Schleicher & Schuell, Keene, N.H.), blocked in 5% milk, probed with antibodies and detected by using an enhanced chemiluminescence kit (ECL, Amersham, Arlington Heights, Ill.).

T1 sequence (P29351 whole entry): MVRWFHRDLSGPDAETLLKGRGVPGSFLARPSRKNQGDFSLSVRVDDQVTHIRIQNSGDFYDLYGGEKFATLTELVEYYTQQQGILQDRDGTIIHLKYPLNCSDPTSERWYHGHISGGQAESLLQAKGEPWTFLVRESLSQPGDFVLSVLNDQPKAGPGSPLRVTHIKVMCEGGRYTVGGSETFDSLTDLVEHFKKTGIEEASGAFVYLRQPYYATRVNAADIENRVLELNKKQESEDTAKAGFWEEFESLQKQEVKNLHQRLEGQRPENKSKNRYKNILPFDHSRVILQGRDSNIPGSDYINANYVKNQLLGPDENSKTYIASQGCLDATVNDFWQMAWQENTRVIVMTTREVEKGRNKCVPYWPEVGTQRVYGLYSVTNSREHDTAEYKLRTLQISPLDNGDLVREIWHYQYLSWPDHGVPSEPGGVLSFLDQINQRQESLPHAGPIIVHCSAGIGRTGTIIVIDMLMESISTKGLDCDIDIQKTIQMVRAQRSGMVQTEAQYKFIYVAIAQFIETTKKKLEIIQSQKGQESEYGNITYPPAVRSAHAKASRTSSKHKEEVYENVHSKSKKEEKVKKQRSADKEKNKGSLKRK

Row | Structure (SMILES) | inhibitory activity against SHP-1 (SHP-1) | PRL-1 PTPase activity retained (PRL-1) | effect against PRL-2 (PRL-2) | inhibitory activity against GSTm8 (GSTm8) | SHP-1 phosphatase activity (SHP-1; 10 μg/ml) | Stat1 tyrosine phosphorylation by drug alone ([1]; DR cells, absence of IFN-alpha) | IFN-alpha-induced Stat1 tyrosine phosphorylation ([1]; DU145 cells, 5 hours post-stimulation) | IFN-alpha-induced Stat1 tyrosine phosphorylation ([1]; WM9 cells, 5 hours post-stimulation) | IFN-alpha-induced Stat1 tyrosine phosphorylation ([1]; WM35 cells) | IFN-alpha-induced Stat1 tyrosine phosphorylation ([1]; WiT49-N1 cells)
1 | CC(=O)N1CCN(c2ccc(OCC3COC(Cn4ccnc4)(c4ccc(Cl)cc4Cl)O3)cc2)CC1 (centres unmarked) [ketoconazole] | no obvious inhibitory activity | 60-70% | not effective | no obvious inhibitory activity | – | – | – | – | – | –
2 | N=C(N)c1ccc(OCCCCCOc2ccc(C(=N)N)cc2)cc1 [pentamidine] | no obvious inhibitory activity | 70-80% | not effective | no obvious inhibitory activity | – | – | – | – | – | –
3 | O.O.O.O.O.O.O.O.O.O=C([O-])[C@@H]1[O][Sb]2([O-])([O][Sb]34([OH])[O][C@H]([C@H](O)CO)[C@H]([O]3)[C@H](C(=O)[O-])[O]4)[O][C@H]([C@H](O)CO)[C@@H]1[O]2.[Na+].[Na+].[Na+] [sodium stibogluconate] | – | – | – | – | almost completely inhibited; also recorded: inactivated SHP-1 | failed to induce Stat1 tyrosine phosphorylation | Enhanced | Enhanced | failed to enhance | failed to enhance
